Patent US20250236589A1, “THERAPEUTIC PHENETHYLAMINE COMPOSITIONS AND METHODS OF USE” (Cybin IRL Limited, priority 2022, published 2025)
Like-named read-outs stand apart in the source and are kept apart here.

Legend:
[1] = molecular target: Cholecystokinin CCK2 (CCKB) (h) (Homo sapiens (Human), UniProt P32239); assay: Off-target screen, radioligand displacement at 10 μM; conditions: read-out: binding at 10 μM
PCP (rat cortex) = assay: as above; format: binding
Endothelin ETB (h) = Endothelin ETB (h) (Homo sapiens (Human), UniProt P24530); assay: as above; conditions: read-out: binding at 10 μM
Angiotensin AT2 (h) = Angiotensin AT2 (h) (Homo sapiens (Human), UniProt P50052); assay: as above; conditions: read-out: binding at 10 μM
Chain of Angiotensin AT2 (h) (P50052 whole entry, looked up): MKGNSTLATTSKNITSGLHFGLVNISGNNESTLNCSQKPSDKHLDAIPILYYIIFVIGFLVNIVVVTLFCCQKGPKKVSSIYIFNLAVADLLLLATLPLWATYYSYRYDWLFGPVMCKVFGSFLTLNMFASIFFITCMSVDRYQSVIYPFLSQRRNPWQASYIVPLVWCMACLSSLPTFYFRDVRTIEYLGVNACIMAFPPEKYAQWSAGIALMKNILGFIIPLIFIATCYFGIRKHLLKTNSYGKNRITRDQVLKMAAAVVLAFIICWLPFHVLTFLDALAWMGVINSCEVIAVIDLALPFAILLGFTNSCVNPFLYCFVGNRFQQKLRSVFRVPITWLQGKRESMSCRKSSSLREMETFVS

Neuropeptide Y Y2 (h) = Neuropeptide Y Y2 (h) (Homo sapiens (Human), UniProt P49146); assay: as above; conditions: read-out: binding at 10 μM
Vasopressin V1a (h) = Vasopressin V1a (h) (Homo sapiens (Human), UniProt P37288); assay: as above; conditions: read-out: binding at 10 μM
Dopamine D1 (h) = Dopamine D1 (h) (Homo sapiens (Human), UniProt P21728); assay: as above; format: binding
Chain of Dopamine D1 (h) (P21728 whole entry, looked up): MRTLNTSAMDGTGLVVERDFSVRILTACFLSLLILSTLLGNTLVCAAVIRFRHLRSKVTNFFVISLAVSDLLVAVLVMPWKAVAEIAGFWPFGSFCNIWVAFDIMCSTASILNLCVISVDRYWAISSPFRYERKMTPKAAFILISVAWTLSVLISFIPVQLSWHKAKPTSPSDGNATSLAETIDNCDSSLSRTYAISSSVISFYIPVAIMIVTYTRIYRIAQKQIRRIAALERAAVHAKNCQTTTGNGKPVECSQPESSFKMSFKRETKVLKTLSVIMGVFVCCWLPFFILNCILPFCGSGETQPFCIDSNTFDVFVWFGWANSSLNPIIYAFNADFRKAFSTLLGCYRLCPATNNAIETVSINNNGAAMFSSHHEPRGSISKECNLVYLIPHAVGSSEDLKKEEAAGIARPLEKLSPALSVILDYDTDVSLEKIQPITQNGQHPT

Neuropeptide Y Y1 (h) = Neuropeptide Y Y1 (h) (Homo sapiens (Human), UniProt P25929); assay: as above; conditions: read-out: binding at 10 μM
Chain of Neuropeptide Y Y1 (h) (P25929 whole entry, looked up): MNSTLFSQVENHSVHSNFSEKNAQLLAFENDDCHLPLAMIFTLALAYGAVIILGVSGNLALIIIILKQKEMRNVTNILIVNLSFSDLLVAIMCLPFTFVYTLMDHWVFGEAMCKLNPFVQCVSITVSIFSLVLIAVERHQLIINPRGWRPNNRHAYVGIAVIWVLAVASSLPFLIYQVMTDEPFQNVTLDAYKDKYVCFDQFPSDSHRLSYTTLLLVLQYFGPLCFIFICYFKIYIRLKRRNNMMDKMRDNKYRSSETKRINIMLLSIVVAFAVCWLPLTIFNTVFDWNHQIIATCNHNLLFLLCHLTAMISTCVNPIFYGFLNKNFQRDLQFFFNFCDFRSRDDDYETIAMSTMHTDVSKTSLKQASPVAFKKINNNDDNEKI

Histamine H1 (h) = Histamine H1 (h) (Homo sapiens (Human), UniProt P35367); assay: as above; format: binding
5-HT3 (h) = 5-HT3 (h) (Homo sapiens (Human), UniProt P46098); assay: as above; conditions: antagonist, read-out: binding at 10 μM
Chain of 5-HT3 (h) (P46098 whole entry, looked up): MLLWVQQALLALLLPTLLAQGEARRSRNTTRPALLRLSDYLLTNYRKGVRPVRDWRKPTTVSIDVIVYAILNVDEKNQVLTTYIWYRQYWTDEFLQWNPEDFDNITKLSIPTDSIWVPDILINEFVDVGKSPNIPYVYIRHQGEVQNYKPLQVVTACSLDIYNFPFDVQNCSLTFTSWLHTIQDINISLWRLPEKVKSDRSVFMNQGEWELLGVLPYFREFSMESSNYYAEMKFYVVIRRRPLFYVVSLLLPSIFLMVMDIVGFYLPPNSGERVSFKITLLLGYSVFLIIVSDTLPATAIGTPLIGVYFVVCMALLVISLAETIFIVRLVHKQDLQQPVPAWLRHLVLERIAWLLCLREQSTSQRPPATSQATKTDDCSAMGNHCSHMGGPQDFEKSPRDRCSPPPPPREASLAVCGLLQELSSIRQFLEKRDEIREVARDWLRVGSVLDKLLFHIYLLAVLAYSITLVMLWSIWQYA

Muscarinic M5 (h) = Muscarinic M5 (h) (Homo sapiens (Human), UniProt P08912); assay: as above; format: binding; conditions: antagonist radioligand
D5 (h) = D5 (h) (Homo sapiens (Human), UniProt P21918); assay: as above; conditions: read-out: binding at 10 μM
Adrenergic β1 (h) = Adrenergic β1 (h) (Homo sapiens (Human), UniProt P08588); assay: as above; conditions: read-out: binding at 10 μM
Chain of Adrenergic β1 (h) (P08588 whole entry, looked up): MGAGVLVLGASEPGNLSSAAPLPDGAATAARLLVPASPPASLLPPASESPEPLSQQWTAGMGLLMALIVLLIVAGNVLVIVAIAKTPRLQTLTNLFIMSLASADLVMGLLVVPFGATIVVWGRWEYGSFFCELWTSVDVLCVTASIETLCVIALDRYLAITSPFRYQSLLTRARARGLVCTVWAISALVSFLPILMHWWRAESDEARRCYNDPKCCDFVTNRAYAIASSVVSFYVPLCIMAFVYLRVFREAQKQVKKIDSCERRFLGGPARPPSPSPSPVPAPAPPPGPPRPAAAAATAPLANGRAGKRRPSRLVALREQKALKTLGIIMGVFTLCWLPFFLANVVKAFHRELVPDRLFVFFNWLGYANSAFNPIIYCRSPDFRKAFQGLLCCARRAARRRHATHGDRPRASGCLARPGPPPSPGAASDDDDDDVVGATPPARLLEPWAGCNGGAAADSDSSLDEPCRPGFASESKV

5-HT2A receptor = 5-HT2A receptor (Homo sapiens (Human), UniProt P28223); assay: 5-HT2A functional assay, IP1 (IPOne); format: cell-based; conditions: for Emax: relative to 5-HT
Protocol: After incubation, cells were lysed and fluorescence acceptor and donor were added. FRET was measured after 60 min at room temperature using a microplate reader (Envision, Perkin Elmer). TRUPATH assays followed a similar workflow, except that different reagents were used, and LiCl was not included in the samples; the protocol was based on the report by Olsen, R. H. J. et al., cited above.

Adenosine A1 (h) = Adenosine A1 (h) (Homo sapiens (Human), UniProt P30542); assay: Off-target screen, radioligand displacement at 10 μM; conditions: read-out: binding at 10 μM
Chain of Adenosine A1 (h) (P30542 whole entry, looked up): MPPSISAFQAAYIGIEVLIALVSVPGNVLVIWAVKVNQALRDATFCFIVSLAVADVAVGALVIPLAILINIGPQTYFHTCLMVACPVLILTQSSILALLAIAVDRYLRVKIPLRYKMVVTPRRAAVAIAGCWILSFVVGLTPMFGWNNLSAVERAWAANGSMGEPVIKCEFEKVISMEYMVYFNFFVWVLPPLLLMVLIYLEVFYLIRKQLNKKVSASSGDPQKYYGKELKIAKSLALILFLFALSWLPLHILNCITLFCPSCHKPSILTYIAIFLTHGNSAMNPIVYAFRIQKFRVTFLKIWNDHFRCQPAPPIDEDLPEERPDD

Muscarinic M1 (h) = Muscarinic M1 (h) (Homo sapiens (Human), UniProt P11229); assay: as above; format: binding; conditions: antagonist radioligand
[2] = molecular target: norepinephrine transporter (h) (Homo sapiens (Human), UniProt P23975); assay: as above; conditions: read-out: binding at 10 μM
Tachykinin NK1 (h) = Tachykinin NK1 (h) (Homo sapiens (Human), UniProt P25103); assay: as above; conditions: read-out: binding at 10 μM
Galanin GAL2 (h) = Galanin GAL2 (h) (Homo sapiens (Human), UniProt O43603); assay: as above; conditions: read-out: binding at 10 μM
Chain of Galanin GAL2 (h) (O43603 whole entry, looked up): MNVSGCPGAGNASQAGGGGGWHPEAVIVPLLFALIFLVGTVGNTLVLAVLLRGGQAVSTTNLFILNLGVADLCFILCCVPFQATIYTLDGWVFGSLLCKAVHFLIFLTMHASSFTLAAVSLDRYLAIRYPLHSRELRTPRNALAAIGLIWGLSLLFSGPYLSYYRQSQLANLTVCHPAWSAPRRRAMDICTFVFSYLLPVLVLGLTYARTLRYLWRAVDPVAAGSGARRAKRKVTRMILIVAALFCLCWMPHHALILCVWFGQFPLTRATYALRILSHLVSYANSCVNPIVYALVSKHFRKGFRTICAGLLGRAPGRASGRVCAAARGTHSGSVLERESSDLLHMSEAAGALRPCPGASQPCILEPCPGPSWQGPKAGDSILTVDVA

[3] = molecular target: CXCR2 (Interleukin-8B) (h) (Homo sapiens (Human), UniProt P25025); assay: as above; conditions: read-out: binding at 10 μM
Chain of CXCR2 (Interleukin-8B) (h) (P25025 whole entry, looked up): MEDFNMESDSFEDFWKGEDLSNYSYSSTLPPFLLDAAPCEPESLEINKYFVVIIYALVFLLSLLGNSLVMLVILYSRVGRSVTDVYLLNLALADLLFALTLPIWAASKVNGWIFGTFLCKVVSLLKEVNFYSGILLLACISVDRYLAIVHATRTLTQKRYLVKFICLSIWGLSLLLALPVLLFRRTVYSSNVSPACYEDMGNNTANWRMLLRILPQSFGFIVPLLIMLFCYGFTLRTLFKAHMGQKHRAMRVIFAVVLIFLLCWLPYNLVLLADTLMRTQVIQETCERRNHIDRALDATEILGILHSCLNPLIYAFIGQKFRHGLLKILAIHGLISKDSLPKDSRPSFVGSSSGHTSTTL

5-HT1B (h) = 5-HT1B (h) (Homo sapiens (Human), UniProt P28222); assay: as above; format: binding; conditions: antagonist radioligand
Melatonin MT1 (h) = Melatonin MT1 (h) (Homo sapiens (Human), UniProt P48039); assay: as above; conditions: read-out: binding at 10 μM
Chain of Melatonin MT1 (h) (P48039 whole entry, looked up): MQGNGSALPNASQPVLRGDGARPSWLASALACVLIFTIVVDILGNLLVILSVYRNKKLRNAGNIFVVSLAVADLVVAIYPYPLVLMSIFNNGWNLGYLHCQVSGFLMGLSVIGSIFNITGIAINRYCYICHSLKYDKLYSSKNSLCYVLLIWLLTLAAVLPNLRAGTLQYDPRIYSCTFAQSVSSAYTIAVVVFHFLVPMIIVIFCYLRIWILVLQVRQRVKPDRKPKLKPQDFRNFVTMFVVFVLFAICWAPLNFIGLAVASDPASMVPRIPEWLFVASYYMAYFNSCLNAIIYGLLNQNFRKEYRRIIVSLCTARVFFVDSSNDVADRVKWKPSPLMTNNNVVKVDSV

Dopamine D3 (h) = Dopamine D3 (h) (Homo sapiens (Human), UniProt P35462); assay: as above; format: binding
[4] = system: Somatostatin SST (non-selective) (m); assay: as above; format: binding, mouse
human 5-HT2B receptor = human 5-HT2B receptor (Homo sapiens (Human), UniProt P41595); assay: 5-HT2B functional assay, IP1 (IPOne); format: cell-based; conditions: for Emax: IP1 assay, relative to 5-HT
Chain of human 5-HT2B receptor (P41595 whole entry, looked up): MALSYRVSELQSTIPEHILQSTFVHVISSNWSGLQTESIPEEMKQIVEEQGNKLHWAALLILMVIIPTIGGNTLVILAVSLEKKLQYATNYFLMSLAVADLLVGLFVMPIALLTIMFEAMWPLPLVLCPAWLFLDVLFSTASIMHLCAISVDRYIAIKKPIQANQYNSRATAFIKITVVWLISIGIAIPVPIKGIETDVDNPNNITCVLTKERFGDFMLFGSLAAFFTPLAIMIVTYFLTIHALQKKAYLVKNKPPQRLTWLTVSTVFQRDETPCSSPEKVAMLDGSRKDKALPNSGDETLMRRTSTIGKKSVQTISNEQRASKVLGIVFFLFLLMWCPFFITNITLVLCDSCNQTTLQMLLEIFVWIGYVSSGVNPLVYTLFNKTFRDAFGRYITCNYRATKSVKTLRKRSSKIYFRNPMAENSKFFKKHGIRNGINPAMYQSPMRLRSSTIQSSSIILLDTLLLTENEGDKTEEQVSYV
Protocol: 5-HT2A,2B,2C receptor-mediated Gq activation—canonical signaling pathways—[phosphoinositide hydrolysis leading to the production of inositol phosphate 1 (IP1, IPOne, Cisbio assay) or direct G-protein activation using TRUPATH technology]were measured as previously described (Porter, R. H. P., Benwell, K. R., Lamb, H., Malcolm, C. S., Allen, N. F., Revell, D. F., Adams, D. R. and Sheardown, M. J., 1999, Functional characterization of agonists at recombinant human 5-HT2a, 5HT2b and 5-HT2c receptors in CHO-K1 cells, Brit J Pharmacol 128, 13; Olsen, R. H. J., DiBerto, J. F., English, J. G. et al. TRUPATH, an open-source biosensor platform for interrogating the GPCR transducerome. […] Briefly, for the IPOne assay, for 5-HT2ARs, CHO-K1 or HEK-293 cells were incubated with test articles and 5-HT (positive control) in stimulation buffer containing LiCl. After incubation, cells were lysed and fluorescence acceptor and donor were added. FRET was measured after 60 min at room temperature using a microplate reader (Envision, Perkin Elmer). TRUPATH assays followed a similar workflow, except that different reagents were used, and LiCl was not included in the samples; the protocol was based on the report by Olsen, R. H. J. et al., cited above.

Chemokine CCR1 (h) = Chemokine CCR1 (h) (Homo sapiens (Human), UniProt P32246); assay: Off-target screen, radioligand displacement at 10 μM; conditions: read-out: binding at 10 μM
Chain of Chemokine CCR1 (h) (P32246 whole entry, looked up): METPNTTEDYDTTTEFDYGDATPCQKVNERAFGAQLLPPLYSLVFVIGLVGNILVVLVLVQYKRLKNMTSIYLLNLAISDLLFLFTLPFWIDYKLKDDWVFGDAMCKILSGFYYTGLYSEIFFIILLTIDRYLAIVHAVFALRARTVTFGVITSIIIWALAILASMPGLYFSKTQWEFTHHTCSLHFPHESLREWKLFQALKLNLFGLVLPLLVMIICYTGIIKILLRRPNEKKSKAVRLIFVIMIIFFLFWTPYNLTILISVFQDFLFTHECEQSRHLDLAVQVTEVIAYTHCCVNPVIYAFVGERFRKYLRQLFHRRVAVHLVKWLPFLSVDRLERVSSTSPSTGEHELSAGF

Cannabinoid CB1 (h) = Cannabinoid CB1 (h) (Homo sapiens (Human), UniProt P21554); assay: as above; format: binding
[5] = system: sigma (non-selective) (h); assay: as above; format: binding, human; conditions: agonist radioligand
Glucocorticoid GR (h) = Glucocorticoid GR (h) (Homo sapiens (Human), UniProt P04150); assay: as above; conditions: read-out: binding at 10 μM
[6] = antagonist radioligand, read-out: inhibition at 10 μM
[7] = read-out: inhibition of radioligand bound at 10 μM

Chain of Cholecystokinin CCK2 (CCKB) (h) (P32239 whole entry, looked up): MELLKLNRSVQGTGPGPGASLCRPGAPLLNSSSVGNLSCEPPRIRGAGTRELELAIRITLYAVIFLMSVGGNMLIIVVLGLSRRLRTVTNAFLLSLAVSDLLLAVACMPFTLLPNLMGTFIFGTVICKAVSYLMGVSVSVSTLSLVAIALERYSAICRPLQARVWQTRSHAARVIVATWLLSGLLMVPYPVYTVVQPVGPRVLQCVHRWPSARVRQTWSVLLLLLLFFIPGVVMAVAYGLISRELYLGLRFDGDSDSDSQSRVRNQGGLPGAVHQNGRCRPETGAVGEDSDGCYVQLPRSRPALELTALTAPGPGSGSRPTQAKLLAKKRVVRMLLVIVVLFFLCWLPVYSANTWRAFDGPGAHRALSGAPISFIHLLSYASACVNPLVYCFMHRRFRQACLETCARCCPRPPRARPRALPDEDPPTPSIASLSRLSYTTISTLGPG

Compound	inhibition at 10 µM [1] [%]	binding at 10 μM (PCP (rat cortex))	inhibition at 10 µM (Endothelin ETB (h)) [%]	inhibition at 10 µM (Angiotensin AT2 (h)) [%]	inhibition at 10 µM (Neuropeptide Y Y2 (h)) [%]	inhibition at 10 µM (Vasopressin V1a (h)) [%]	inhibition at 10 µM (Neuropeptide Y Y1 (h)) [%]	inhibition at 10 µM (5-HT3 (h)) [%]	inhibition at 10 µM (Muscarinic M5 (h)) [%]	inhibition at 10 µM (D5 (h)) [%]	inhibition at 10 µM (Adrenergic β1 (h)) [%]	Emax (5-HT2A receptor; IP1 assay) [%]	inhibition at 10 µM (Adenosine A1 (h)) [%]	inhibition at 10 µM (Muscarinic M1 (h)) [%]	inhibition at 10 µM [2] [%]	inhibition at 10 µM (Tachykinin NK1 (h)) [%]	inhibition at 10 µM (Galanin GAL2 (h)) [%]	inhibition at 10 µM [3] [%]	inhibition at 10 µM (5-HT1B (h)) [%]	inhibition at 10 µM (Melatonin MT1 (h)) [%]	further results
COc1cc(CC(C)N)c(OC)cc1I (racemic) [DOI, (±)-2,5-dimethoxy-4-iodoamphetamine, reference compound]	< 50	NB (inhibited less than 50% of radioligand bound to them, and therefore it can be concluded they do not bind (“no binding,” NB))	< 50	< 50	< 50	< 50	< 50	< 50	62.6	< 50	< 50	~86	< 50	71.8	< 50	< 50	< 50	< 50	52.7	< 50	inhibition at 10 µM (Dopamine D1 (h); read-out: binding at 10 μM): < 50%; inhibition at 10 µM (Histamine H1 (h); [6]): 64.6%; inhibition at 10 µM (Dopamine D3 (h); read-out: binding at 10 μM): < 50%; binding at 10 μM [4]: NB (inhibited less than 50% of radioligand bound to them, and therefore it can be concluded they do not bind (“no binding,” NB)); EC50 (human 5-HT2B receptor): 16 nM; Emax (human 5-HT2B receptor): ~98%; inhibition at 10 µM (Chemokine CCR1 (h)): < 50%; inhibition at 10 µM (Cannabinoid CB1 (h); read-out: binding at 10 μM): < 50%; inhibition at 10 µM (Cannabinoid CB1 (h); [7]): < 50%; inhibition at 10 µM [5]: 61.7% inhibition at 10 μM; inhibition at 10 µM (Glucocorticoid GR (h)): < 50%
COc1cc(SC(F)(F)F)c(OC)cc1CCN [Compound I-1, 2-(2,5-dimethoxy-4-((trifluoromethyl)thio)phenyl)ethan-1-amine]	< 50	NB (inhibited less than 50% of radioligand bound to them, and therefore it can be concluded they do not bind (“no binding,” NB))	< 50	< 50	< 50	< 50	< 50	< 50	> 80	< 50	< 50	~86	< 50	> 80	< 50	< 50	< 50	< 50	> 80	< 50	inhibition at 10 µM (Dopamine D1 (h); [6]): 57%; inhibition at 10 µM (Histamine H1 (h); read-out: binding at 10 μM): < 50%; 5-HT2AR agonist activity (in words) (5-HT2A receptor): pronounced agonists; EC50 (5-HT2A receptor): 4.1 nM; activation selectivity for 5-HT2A over 5-HT2B (5-HT2A receptor; EC50, IP1): ~21 fold; 2A/2B EC50 Selectivity (5-HT2A receptor; IP1 assay): 21.5; inhibition at 10 µM (Dopamine D3 (h); [6]): 70.4%; binding at 10 μM [4]: NB (inhibited less than 50% of radioligand bound to them, and therefore it can be concluded they do not bind (“no binding,” NB)); EC50 (human 5-HT2B receptor): 88 nM; Emax (human 5-HT2B receptor): ~84%; inhibition at 10 µM (Chemokine CCR1 (h)): < 50%; inhibition at 10 µM (Cannabinoid CB1 (h); read-out: binding at 10 μM): < 50%; inhibition at 10 µM (Cannabinoid CB1 (h); [7]): < 50%; inhibition at 10 µM [5]: 64.1% inhibition at 10 μM; inhibition at 10 µM (Glucocorticoid GR (h)): < 50%
